Here are results for one substance from patent publication US11246899B2, “Urtica dioica extracts and methods of isolating urtica dioica extracts” (SynHiTech Inc., priority 2018, dated 2022).

The assay concerns Type 2 diabetic patients. The experiment in a line: Clinical study in Type 2 diabetic patients, blood glucose by glucometer and side effects. The format is in vivo, human. Here is the method:
The effect of the Urdi-1 extract was tested on six Type 2 diabetic patients. The consents were filled by patients and were reviewed by the ethical committee of Tehran Hospital. The UD1-extract (20 mg of Urdi-1) was taken orally as one or two dosages per day. Blood glucose was measured by glucometer as fasted or after dining. After getting the promising data at the animal level, we tested the efficacy of Urdi-1 in Type 2 diabetic patients. Six patients (Patient I to VI) with high level of blood glucose consented to participate in the study (Table 2). These patients were selected different sex (male and female) with varying age ranging from mid forty to late sixty. As the level of the referral blood glucose and the medication administrated by their physicians were different data of each patient is presented individually.

Where [1] appears, read: Patient I, after insulin two weeks then Glibenclamide and metformin for one month.
Where [2] appears, read: Patient IV, after insulin 17 days then Glibenclamide and metformin for two weeks.

Glibenclamide and metformin: under setting [1], the fasting blood glucose entry is given as “about 175 mg/dL” and the night blood glucose is given as roughly 225 mg/dL. Further, under setting [2], the fasting blood glucose entry is “about 90 mg/dL” and the night blood glucose is on record as roughly 220 mg/dL.
